Each block holds one molecule with its values, some of them ahead of it. Active and inactive are the calls of the source.
Key:
[1] = viability inhibitors of stage V gametocytes – luminescence, dose response (AID 1117278); format: functional, cell-based;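 also: gametocytes exposed to compound for 24 hours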
[2] = viability loss in human Jurkat cells – cell-based, luminescence, cytotoxicity control for P. falciparum gametocyte viability project, dose response (AID 1117277); format: functional;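 also: potency reflects loss of cellular ATP meaning fewer viable cells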
[3] = target: G-protein coupled receptor 55 (Homo sapiens, UniProt Q9Y2T6); assay: inhibition of LPI-stimulated GPR55 beta-arrestin translocation – imaging, U2OS, beta-arrestin-GFP, LPI agonist, primary screen (AID 2013); format: functional;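 also: antagonist potency measured as reduced agonist-driven arrestin aggregation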
Sequence of G-protein coupled receptor 55 (Q9Y2T6 whole entry): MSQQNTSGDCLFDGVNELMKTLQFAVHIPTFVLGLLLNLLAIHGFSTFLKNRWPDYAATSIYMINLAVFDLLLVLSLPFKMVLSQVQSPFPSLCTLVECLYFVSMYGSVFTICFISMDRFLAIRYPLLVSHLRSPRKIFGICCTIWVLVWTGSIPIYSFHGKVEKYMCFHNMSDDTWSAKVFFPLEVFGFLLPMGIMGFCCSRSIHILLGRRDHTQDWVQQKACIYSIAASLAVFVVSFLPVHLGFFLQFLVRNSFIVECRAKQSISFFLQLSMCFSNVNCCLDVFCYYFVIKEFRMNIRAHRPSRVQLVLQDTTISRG

[4] = target: T1, Heat shock factor protein 1 (Mus musculus, UniProt P38532); assay: enhancement of HSF1-driven luciferase signal – cell-based, NIH3T3, luminescence, dose retest, confirmation (AID 435004); format: functional;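 also: stress induced by proteasome inhibitor MG132 added 30 min after compound; luciferase reporter driven by HSF1 response element in NIH3T3 cells; actives raise luminescence as potentiators of the MG132 stress response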
T1 sequence (P38532 whole entry): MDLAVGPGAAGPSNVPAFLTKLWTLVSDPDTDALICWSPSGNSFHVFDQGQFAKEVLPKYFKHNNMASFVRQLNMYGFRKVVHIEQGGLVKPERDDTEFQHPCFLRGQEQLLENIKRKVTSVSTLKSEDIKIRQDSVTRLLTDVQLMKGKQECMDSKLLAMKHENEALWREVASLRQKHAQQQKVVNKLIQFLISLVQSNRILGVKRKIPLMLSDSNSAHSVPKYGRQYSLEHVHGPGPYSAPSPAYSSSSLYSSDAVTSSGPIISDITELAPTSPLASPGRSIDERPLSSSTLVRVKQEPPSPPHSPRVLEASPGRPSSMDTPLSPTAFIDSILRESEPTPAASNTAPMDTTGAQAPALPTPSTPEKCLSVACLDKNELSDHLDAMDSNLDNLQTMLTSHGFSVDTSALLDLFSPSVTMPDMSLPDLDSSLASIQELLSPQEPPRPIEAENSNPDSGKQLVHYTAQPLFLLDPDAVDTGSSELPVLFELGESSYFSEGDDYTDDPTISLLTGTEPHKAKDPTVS

Cytochrome P450 1A2 = target: T2, Cytochrome P450 1A2 (Homo sapiens, UniProt P05177);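 also: PubChem cytochrome P450 panel assay, CYP1A2 panel member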
T2 sequence (P05177 whole entry): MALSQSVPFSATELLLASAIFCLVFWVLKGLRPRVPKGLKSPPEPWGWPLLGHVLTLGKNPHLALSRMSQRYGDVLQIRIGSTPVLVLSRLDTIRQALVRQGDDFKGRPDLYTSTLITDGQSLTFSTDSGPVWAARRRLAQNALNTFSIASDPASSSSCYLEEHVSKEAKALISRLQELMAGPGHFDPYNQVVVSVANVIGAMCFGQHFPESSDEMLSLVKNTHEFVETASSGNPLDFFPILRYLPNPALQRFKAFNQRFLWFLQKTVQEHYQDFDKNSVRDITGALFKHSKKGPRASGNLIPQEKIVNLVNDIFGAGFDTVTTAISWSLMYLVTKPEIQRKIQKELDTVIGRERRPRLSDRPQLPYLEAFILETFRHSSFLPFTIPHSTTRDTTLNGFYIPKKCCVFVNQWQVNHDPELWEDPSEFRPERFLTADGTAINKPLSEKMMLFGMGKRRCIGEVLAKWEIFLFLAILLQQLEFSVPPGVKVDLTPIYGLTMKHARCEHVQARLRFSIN

[5] = target: T3, COUP transcription factor 2 (Homo sapiens, UniProt P24468); assay: Luminescence-based cell-based high throughput dose response assay to identify inhibitors of COUP-TFII (NR2F2).; format: functional;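 also: HEK293 cells transiently cotransfected with COUP-TFII expression vector and reporter; luciferase reporter luminescence driven by COUP-TFII from the pX2-168 reporter plasmid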
T3 sequence (P24468 whole entry): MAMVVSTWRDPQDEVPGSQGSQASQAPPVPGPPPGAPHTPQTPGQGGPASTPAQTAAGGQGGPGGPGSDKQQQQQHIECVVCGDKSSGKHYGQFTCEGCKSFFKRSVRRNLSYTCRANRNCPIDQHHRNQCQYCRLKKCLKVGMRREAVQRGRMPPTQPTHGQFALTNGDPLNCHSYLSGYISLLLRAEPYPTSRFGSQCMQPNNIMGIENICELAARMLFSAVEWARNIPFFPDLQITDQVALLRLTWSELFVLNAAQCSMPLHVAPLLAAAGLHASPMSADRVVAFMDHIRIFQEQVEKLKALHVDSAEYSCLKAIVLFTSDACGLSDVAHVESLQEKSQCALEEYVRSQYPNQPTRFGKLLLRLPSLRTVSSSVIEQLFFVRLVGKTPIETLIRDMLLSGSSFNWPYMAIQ

Galanin receptor type 3 = target: T4, Galanin receptor type 3 (Homo sapiens, UniProt O60755); assay: Fluorescence-based cell-based primary high throughput dose response assay to identify antagonists of the Galanin Receptor 3 (GalR3).; format: functional
T4 sequence (O60755 whole entry): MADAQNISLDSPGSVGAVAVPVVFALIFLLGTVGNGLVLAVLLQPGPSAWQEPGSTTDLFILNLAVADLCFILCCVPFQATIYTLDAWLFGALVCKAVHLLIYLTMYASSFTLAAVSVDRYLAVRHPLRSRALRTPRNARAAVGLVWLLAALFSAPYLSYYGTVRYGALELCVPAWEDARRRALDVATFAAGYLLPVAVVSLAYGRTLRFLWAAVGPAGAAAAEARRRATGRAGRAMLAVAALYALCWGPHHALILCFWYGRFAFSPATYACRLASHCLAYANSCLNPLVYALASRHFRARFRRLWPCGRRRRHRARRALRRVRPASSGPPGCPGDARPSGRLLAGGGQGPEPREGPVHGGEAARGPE

[6] = non-specific 3'UTR reporter inhibition in Clone20-Shn3RL – cell-based, Renilla luciferase, cherry-picked, counter-screen for Shn3 inhibitor project, dose response (AID 624133); format: functional
[7] = reduction of Shn3 3'UTR-driven luciferase in osteoblasts – cell-based, Clone20 osteoblasts, firefly luciferase, cherry-picked, dose response (AID 624132); format: functional;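 also: firefly luciferase luminescence from reporter carrying the Shn3 3'UTR in osteoblasts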
INS1 = assay: INS-1E survival protection against cytokine death – cell-based, luminescence, retest, dose response (AID 449756); format: functional; conditions: Rattus norvegicus;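 also: cell death triggered by IL-1 beta plus TNF-alpha plus IFN-gamma mixture; protective hits raise ATP signal compared with cytokine alone wells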
[8] = loss of viability in HepG2 cells – cell-based, CellTiter-Glo, cherry-picked, cytotoxicity control for Shn3 inhibitor project, dose response (AID 624134); format: functional
[9] = HEK-293T viability loss, compound-treated – cell-based, uHTS hits, cytotoxicity control for B/T-cell NF-kB inhibitor project, dose response (AID 489019); format: functional;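 also: IC50 reflects cytotoxicity as loss of cell viability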
Jurkat = assay: blockers of NF-kB activation in T cells – Jurkat, luciferase reporter, luminescence, B- and T-cell, dose response (AID 489004); format: functional, cell-based; conditions: Homo sapiens;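 also: NF-kB luciferase reporter Jurkat cells stimulated with PMA plus ionomycin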
cells = format: functional, cell-based; conditions: HEK-CNG
[10] = target: T5, Ubiquitin-conjugating enzyme E2 N (Homo sapiens, UniProt P61088); format: functional;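 also: Dose-response confirmation in a TR-FRET assay detecting UBC13-driven polyubiquitin chain formation, inhibition measured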
T5 sequence (P61088 whole entry): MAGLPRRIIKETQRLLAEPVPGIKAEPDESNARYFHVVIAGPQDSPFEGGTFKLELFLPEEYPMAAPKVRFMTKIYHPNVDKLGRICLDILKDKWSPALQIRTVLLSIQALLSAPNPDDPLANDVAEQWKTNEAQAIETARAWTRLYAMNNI

Mu-type opioid receptor = Mu-type opioid receptor (Homo sapiens, UniProt P35372); format: functional, cell-based;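 also: U2OS cells with beta-arrestin recruitment to OPRM1 by beta-gal complementation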
Sequence of Mu-type opioid receptor (P35372 whole entry): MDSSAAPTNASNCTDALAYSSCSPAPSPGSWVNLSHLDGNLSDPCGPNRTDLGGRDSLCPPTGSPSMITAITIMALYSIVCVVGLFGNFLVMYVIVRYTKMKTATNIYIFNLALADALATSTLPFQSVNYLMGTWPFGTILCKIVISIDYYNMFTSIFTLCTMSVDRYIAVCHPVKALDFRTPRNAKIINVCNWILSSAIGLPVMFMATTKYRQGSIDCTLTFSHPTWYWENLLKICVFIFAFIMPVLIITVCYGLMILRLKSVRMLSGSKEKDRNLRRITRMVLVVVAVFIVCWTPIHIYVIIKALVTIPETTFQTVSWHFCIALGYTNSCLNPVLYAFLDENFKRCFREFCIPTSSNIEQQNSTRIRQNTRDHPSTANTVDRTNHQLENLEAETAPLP

[11] = target: Peroxisome proliferator-activated receptor gamma/Nuclear receptor coactivator 1 (Homo sapiens, UniProt P37231); assay: TR-FRET dose response biochemical High Throughput Screening assay for agonists of the steroid receptor coactivator 1 (SRC-1) recruitment by the peroxisome proliferator-activated receptor gamma (PPAR gamma): non-selective agonists. [Related pubchem assays (depositor defined):AID1300, AID1808, AID504735, AID631]; format: protein assay
[12] = target: Peroxisome proliferator-activated receptor gamma/Nuclear receptor coactivator 2 (Homo sapiens, UniProt P37231); assay: (§1) TR-FRET dose response biochemical High Throughput Screening assay for agonists of the steroid receptor coactivator 2 (SRC-2) recruitment by the peroxisome proliferator-activated receptor gamma (PPAR gamma): non-selective agonists. [Related pubchem assays: 1297, 1032 ]; format: functional
Sequence of Peroxisome proliferator-activated receptor gamma/Nuclear receptor coactivator 2 (P37231 whole entry): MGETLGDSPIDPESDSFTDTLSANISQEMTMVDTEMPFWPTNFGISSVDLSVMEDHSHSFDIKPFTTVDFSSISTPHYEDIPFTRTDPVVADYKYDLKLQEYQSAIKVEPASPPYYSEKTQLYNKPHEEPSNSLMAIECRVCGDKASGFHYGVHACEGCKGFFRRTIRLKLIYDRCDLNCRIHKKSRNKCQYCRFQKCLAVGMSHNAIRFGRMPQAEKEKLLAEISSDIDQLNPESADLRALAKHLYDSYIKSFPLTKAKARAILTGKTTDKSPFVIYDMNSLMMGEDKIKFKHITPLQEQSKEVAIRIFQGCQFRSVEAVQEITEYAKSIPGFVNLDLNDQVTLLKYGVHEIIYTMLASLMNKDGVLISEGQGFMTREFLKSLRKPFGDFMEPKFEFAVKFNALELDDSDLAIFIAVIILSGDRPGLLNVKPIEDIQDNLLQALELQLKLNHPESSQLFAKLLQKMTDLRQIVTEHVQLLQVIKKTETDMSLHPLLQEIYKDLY
Sequence of Peroxisome proliferator-activated receptor gamma/Nuclear receptor coactivator 2 (Q15596 whole entry, further chain): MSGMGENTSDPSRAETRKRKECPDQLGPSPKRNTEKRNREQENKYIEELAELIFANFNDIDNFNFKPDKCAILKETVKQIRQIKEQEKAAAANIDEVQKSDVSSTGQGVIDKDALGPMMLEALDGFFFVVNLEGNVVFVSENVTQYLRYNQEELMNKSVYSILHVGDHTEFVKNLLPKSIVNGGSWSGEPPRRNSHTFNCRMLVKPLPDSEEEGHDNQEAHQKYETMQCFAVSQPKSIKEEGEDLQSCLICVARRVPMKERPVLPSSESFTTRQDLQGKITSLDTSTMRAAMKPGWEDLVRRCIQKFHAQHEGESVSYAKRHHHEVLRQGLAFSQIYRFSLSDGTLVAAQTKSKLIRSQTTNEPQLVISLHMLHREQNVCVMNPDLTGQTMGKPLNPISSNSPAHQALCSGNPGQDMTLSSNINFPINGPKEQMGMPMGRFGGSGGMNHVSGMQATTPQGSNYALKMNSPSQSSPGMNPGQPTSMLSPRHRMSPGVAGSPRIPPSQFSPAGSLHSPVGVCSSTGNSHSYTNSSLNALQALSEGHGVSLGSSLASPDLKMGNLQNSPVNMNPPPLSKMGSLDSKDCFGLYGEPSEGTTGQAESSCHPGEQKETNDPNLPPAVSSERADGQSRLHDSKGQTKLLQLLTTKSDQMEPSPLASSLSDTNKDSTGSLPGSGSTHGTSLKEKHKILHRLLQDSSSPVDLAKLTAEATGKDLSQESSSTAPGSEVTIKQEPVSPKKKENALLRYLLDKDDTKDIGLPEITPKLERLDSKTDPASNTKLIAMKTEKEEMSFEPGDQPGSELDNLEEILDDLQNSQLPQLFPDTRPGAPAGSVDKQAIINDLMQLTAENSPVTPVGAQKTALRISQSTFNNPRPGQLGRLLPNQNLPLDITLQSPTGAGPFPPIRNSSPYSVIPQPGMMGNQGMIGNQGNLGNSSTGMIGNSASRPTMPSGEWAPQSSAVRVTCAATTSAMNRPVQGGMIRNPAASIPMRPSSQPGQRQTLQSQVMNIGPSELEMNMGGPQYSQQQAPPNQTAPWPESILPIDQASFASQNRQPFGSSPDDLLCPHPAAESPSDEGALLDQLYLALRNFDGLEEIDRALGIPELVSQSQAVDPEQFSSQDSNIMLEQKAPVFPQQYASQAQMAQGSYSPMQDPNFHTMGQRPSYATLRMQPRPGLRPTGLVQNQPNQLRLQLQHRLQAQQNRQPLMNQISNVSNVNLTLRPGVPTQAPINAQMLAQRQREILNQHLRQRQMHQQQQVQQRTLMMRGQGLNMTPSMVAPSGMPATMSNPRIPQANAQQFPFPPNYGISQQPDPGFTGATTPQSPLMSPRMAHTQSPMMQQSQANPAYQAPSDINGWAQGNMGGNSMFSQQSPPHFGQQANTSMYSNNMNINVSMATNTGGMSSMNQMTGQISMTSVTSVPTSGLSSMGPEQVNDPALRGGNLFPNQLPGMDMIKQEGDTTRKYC

[13] = target: 5-hydroxytryptamine receptor 2A (Mus musculus, UniProt P35363); format: functional, cell-based;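 also: CHO-K1 cells with tagged receptor and beta-arrestin; agonist potency measured as compound-induced activation of the receptor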
Sequence of 5-hydroxytryptamine receptor 2A (P35363 whole entry): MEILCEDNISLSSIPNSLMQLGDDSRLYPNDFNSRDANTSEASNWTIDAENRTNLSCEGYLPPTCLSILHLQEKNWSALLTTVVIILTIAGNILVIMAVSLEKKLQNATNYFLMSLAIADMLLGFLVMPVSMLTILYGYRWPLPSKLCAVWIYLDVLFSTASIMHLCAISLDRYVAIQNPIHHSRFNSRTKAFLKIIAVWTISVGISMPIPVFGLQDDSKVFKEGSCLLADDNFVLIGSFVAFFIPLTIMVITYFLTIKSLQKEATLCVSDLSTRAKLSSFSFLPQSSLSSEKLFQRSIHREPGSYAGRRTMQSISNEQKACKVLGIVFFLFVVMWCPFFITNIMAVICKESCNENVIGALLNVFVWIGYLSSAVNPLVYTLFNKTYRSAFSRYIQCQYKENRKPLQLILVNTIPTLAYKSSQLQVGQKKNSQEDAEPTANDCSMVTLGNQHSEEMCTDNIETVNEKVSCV

[14] = target: Peroxisome proliferator-activated receptor gamma/Nuclear receptor coactivator 3 (Homo sapiens, UniProt P37231); assay: as §1, with “3 (SRC-3)” for “2 (SRC-2)”, “1301 (Confirmation screen.), 1048 (Primary screen.)]” for “1297, 1032 ]”; format: functional
Troponin, cardiac muscle = Troponin, cardiac muscle (Homo sapiens, UniProt P19429+P45379+P63316); assay: Fluorescence-based biochemical high throughput dose response assay for activators of the calcium sensitivity of cardiac Regulated Thin Filaments (RTF). [Related pubchem assays (depositor defined):AID493008, AID493018, AID504382, AID504383]; format: protein-complex assay

Structure (SMILES): N#CCC(=O)Nc1ccc(C(=O)OCC(=O)Nc2ccccc2Sc2ccccc2)cc1
- IC50 [1]: > 109 µM (inactive)
- IC50 [2]: > 83.3 µM (inactive)
- IC50 [3]: 2.17 µM (active)
- EC50 [4]: > 260 µM (inactive)

Structure (SMILES): COc1ccc(C(=O)N2CCC3(CCCN(C(=O)NC(C)C)C3)CC2)cc1
- AC50 (Cytochrome P450 1A2): inactive

Structure (SMILES): CCOc1cc(S(=O)(=O)NCc2ccncc2)ccc1Cl
- IC50 [5]: 2.29 µM (active)
- IC50 (Galanin receptor type 3): 0.581 µM (active)
- AC50 [6]: < 0.26 µM (active)
- AC50 [7]: < 0.26 µM (active)
- AC50 (INS1): 0.848 µM (active)
- AC50 [8]: 0.45 µM (active)
- IC50 [9]: > 80 µM (inactive)
- IC50 (Jurkat): > 80 µM (inactive)
- EC50 (cells): > 29.9 µM (inactive)

- IC50 [10]: > 20 µM (inactive)
- EC50 (Mu-type opioid receptor): 92.6 µM (inactive)
- EC50 [11]: > 79.4 µM (inactive)
- EC50 [12]: > 79.4 µM (not active)
- EC50 [13]: 0.0169 µM (active)
- EC50 [14]: > 79.4 µM (not active)
Structure (SMILES): CCn1c(=O)cc(SCC(=O)NCCCN2CCN(c3ccccc3F)CC2)c2ccccc21

- EC50 (Troponin, cardiac muscle): 11.1 µM (inactive)
Structure (SMILES): CCOC(=O)c1sc(N)c(C#N)c1COC(=O)CNC(=O)c1cc(OC)c(OC)c(OC)c1
